These results are taken from ChEMBL document CHEMBL6092226, “Tilting the Scales toward EGFR Mutant Selectivity: Expanding the Scope of Bivalent "Type V" Kinase Inhibitors” (J Med Chem, 2024).

Series [1] concerns BaF3. Format: functional, cell-based. The following applies: Mus musculus, BaF3, 72 h.
The subject of series [2] is BaF3. The experiment in a line: Antiproliferative activity against mouse BaF3 cells harboring EGFR exon 19del mutant incubated for 72 hrs by MTT assay. Format: functional, cell-based. The following applies: BaF3, 72 h. A general note: Tetrazolium assays rely on reduction of a dye to a coloured formazan, in cell work by metabolically active cells.
Series [3] relates to BaF3. The experiment in a line: cells. The following applies: Mus musculus, BaF3, 72 h.
In series [4] the target is T1, Epidermal growth factor receptor (Homo sapiens, UniProt P00533, L858R). The experiment in a line: Time-dependent irreversible inhibition of GST-tagged EGFR L858R mutant cytoplasmic domain (669 to 1210 residues) (unknown origin) assessed as apparent inactivation constant (Ki) incubated for 240 mins in presence of ATP by fluorescence based analysis. The following applies: read-out: Ki(app).
T1 sequence (P00533 25-1210 L858R limits assumed): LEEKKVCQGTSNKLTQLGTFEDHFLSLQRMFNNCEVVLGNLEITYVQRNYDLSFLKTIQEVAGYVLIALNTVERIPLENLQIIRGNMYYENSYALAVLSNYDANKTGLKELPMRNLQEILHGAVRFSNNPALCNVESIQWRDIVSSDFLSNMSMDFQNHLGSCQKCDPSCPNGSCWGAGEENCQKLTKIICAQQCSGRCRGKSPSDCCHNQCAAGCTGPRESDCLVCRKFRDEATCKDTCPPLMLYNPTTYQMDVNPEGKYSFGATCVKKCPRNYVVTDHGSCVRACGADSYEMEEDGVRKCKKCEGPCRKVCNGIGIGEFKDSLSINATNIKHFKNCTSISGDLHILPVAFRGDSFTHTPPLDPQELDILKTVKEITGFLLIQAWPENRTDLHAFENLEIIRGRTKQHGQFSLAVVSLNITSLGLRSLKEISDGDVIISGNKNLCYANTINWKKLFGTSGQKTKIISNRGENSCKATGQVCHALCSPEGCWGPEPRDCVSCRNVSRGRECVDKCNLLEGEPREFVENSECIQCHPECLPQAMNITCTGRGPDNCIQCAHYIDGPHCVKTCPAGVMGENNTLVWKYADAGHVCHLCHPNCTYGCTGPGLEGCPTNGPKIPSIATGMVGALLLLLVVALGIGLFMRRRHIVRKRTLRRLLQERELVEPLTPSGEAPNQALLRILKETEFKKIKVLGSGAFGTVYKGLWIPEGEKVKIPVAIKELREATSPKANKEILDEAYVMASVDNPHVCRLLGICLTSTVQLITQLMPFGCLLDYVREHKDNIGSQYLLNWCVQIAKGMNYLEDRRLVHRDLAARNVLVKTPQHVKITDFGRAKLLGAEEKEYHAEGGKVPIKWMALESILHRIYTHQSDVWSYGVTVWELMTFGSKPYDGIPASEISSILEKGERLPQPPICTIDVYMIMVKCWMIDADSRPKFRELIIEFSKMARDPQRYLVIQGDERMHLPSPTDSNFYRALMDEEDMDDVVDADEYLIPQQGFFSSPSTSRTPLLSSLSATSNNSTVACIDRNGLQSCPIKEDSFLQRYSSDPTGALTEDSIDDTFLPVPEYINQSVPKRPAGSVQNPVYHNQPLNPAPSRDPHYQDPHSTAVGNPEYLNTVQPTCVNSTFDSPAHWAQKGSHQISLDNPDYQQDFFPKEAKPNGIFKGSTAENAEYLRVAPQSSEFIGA

For series [5], the target named is T2, Epidermal growth factor receptor (Homo sapiens, UniProt P00533, C797S/L858R/T790M). Set-up: species or system Sf9.
T2 sequence (P00533 25-1210 T790M/C797S/L858R limits assumed): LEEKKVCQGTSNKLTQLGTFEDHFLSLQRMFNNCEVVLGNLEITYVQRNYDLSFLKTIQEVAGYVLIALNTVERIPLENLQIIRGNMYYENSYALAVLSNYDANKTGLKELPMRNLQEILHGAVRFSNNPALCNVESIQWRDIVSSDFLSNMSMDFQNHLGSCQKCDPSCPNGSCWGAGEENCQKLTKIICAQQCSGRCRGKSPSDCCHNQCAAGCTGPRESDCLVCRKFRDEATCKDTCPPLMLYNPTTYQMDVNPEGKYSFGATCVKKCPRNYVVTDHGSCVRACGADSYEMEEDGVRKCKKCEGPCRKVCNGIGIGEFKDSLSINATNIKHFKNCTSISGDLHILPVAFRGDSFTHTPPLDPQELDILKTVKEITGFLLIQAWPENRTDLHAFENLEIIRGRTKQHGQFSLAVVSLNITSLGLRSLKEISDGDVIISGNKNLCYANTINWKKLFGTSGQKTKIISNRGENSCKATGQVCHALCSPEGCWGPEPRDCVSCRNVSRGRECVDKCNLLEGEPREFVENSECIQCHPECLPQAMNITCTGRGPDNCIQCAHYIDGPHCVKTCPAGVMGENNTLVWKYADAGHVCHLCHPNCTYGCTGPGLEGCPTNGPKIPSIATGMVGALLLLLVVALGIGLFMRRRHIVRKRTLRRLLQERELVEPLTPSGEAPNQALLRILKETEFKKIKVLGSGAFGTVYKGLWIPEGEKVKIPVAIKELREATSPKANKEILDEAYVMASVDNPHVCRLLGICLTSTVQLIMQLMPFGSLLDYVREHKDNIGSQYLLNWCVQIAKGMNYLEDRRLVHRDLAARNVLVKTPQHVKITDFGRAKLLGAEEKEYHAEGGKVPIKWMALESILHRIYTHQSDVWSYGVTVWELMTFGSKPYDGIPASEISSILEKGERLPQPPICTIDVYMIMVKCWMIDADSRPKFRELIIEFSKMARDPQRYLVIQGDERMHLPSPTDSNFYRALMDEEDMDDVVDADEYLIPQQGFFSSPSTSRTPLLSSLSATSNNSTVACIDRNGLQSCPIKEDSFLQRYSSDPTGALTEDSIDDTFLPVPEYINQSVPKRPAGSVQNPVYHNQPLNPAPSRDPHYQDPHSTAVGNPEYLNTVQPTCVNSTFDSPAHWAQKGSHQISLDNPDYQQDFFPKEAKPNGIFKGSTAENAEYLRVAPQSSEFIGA
Series [6] concerns BaF3. The experiment in a line: cells. To be noted: Mus musculus, BaF3, 72 h. This is another data set of the same source.
Series [7] has as its target T3, Epidermal growth factor receptor (Homo sapiens, UniProt P00533, L858R/T790M). The experiment in a line: Time-dependent irreversible inhibition of GST-tagged EGFR L858R/T790M mutant cytoplasmic domain (669 to 1210 residues) (unknown origin) assessed as apparent inactivation constant (Ki) incubated for 240 mins in presence of ATP by fluorescence based analysis. The following applies: read-out: Ki(app).

For series [8], the target named is T4, Epidermal growth factor receptor (Homo sapiens, UniProt P00533). The experiment in a line: Time-dependent irreversible inhibition of N-terminal GST-tagged wildtype human EGFR cytoplasmic domain (669 to 1210 residues) extracted from Sf21 insect cells assessed as apparent inactivation constant (Ki) incubated for 240 mins in presence of ATP by fluorescence based analysis. The following applies: read-out: Ki(app).
T4 sequence (P00533 whole entry, the tested form may be a part): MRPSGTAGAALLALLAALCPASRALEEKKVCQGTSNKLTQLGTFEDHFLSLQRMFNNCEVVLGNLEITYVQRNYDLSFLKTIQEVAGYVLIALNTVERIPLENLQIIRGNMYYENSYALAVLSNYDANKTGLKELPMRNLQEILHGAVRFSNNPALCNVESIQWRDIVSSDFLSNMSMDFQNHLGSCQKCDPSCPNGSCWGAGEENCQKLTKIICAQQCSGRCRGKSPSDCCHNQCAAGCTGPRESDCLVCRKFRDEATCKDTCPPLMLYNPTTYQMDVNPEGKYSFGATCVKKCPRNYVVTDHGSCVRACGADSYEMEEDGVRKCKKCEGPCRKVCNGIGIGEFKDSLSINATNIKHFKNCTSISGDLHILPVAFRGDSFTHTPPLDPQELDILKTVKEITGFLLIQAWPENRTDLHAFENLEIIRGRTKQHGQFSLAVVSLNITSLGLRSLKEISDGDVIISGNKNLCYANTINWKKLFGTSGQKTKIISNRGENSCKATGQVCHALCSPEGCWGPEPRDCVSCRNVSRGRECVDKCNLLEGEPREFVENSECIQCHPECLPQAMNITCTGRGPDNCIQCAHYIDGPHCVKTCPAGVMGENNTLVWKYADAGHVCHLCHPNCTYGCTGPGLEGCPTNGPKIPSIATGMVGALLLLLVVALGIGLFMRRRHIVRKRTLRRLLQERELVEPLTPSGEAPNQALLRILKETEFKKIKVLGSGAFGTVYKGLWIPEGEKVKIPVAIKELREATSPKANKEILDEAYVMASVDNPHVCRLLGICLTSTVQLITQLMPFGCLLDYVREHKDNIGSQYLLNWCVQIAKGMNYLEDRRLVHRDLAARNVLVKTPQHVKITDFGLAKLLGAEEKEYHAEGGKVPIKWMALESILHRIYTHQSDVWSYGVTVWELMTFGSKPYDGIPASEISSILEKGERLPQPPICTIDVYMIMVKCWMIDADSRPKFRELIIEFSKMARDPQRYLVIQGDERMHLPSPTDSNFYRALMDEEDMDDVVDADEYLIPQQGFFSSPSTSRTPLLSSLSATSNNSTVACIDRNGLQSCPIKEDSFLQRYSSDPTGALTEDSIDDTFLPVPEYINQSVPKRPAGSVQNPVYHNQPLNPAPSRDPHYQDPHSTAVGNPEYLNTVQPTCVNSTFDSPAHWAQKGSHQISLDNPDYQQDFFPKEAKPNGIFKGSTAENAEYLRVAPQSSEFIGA

Series [9] has as its system BaF3. The experiment in a line: cells. The following applies: Mus musculus, BaF3, 72 h. This is another data set of the same source.
The next series has as its system HCC827. The experiment in a line: cells. To be noted: Homo sapiens, HCC827, 72 h.
Another series can be described thus: cells. The following applies: Homo sapiens, NCI-H1975, 72 h.
Series [10] is described as follows: Metabolic stability in pooled male human liver microsomes at 150 uM measured after 2 hrs in presence of NADPH regenerating system by LC-MS analysis. Format: ADME, Microsome. For orientation: Liver microsomes are a subcellular fraction often used to study metabolism.
Series [11] can be described thus: Drug metabolism in pooled male human liver microsomes assessed as thioether oxidation mediated metabolite formation at 150 uM measured after 2 hrs by LC-MS analysis. Format: ADME, Microsome.
In series [12] the target is T2, Epidermal growth factor receptor. On the set-up: species or system Sf9. This is another data set of the same source.
Series [13] concerns the target T3, Epidermal growth factor receptor. The experiment in a line: Reversible inhibition of EGFR L858R/T790M mutant (696 to 1022 residues) (unknown origin) extracted from baculovirus infected Sf9 insect cells in presence of ATP by HTRF assay.
In series [14] the target is T4, Epidermal growth factor receptor. The experiment in a line: Reversible inhibition of wildtype EGFR (696 to 1022 residues) (unknown origin) extracted from baculovirus infected Sf9 insect cells in presence of ATP by HTRF assay. (TR-FRET usually uses a lanthanide donor and a delayed reading to cut background.)
Series [15] deals with T1, Epidermal growth factor receptor. The experiment in a line: Reversible inhibition of EGFR L858R mutant (696 to 1022 residues) (unknown origin) extracted from baculovirus infected Sf9 insect cells in presence of ATP by HTRF assay.

Structures are written as SMILES.

T3 sequence (P00533 25-1210 T790M/L858R limits assumed): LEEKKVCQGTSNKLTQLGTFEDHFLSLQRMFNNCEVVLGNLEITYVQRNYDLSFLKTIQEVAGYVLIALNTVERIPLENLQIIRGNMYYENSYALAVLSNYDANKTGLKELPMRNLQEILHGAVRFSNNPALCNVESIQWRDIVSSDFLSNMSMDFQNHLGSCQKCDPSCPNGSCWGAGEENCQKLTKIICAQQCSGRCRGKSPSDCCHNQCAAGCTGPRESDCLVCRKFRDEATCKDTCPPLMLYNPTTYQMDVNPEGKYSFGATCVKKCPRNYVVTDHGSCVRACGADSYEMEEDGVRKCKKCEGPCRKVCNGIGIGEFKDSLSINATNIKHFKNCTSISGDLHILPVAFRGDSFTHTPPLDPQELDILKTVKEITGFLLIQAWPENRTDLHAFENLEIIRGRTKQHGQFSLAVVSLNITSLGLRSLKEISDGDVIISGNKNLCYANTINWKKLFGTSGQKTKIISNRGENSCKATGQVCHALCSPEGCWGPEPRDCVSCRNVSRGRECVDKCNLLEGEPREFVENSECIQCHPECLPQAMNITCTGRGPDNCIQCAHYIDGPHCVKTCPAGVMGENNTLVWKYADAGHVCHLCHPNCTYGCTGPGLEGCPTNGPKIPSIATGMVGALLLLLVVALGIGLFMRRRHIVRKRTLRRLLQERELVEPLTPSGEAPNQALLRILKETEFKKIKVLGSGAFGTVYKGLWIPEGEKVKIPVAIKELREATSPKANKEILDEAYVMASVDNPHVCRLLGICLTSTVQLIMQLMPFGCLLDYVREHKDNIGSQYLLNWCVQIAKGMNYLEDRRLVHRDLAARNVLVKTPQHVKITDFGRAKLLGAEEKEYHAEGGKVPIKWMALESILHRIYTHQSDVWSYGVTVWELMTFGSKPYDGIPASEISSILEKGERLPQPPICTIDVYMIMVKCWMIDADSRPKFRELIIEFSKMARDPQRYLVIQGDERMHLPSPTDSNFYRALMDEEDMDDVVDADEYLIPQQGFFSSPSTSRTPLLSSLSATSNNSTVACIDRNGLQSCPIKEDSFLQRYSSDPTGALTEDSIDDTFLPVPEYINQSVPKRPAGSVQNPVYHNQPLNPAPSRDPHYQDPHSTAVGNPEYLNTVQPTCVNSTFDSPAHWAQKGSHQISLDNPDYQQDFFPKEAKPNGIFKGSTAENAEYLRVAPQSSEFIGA

Regarding `C=CC(=O)Nc1ccc(OC)c(Nc2cc(-c3[nH]c(SC)nc3-c3cccc(NC(=O)c4ccccc4CN4Cc5ccccc5C4=O)c3)ccn2)c1`, the EC50 – broadly, the concentration giving half of the maximal effect – with BaF3 [1] is over 10000 nM; with BaF3 [2] it was 1400 nM; in the series on BaF3 [3], 880 nM; in the series on BaF3 [6] it was 170 nM; in the series on BaF3 [9], 1700 nM. Besides, the Ki stood at 234 nM in series [4], 310 nM in series [7] and 814 nM in [8]. Also, the IC50 – broadly, the concentration that gives 50% inhibition – in series [5] is over 1000 nM.
As for `C=CC(=O)Nc1ccc(OC)c(Nc2cc(-c3[nH]c(CC)nc3-c3cccc(NC(=O)c4cccc(O)c4CN4Cc5ccccc5C4=O)c3)ccn2)c1`, the EC50 with HCC827 worked out at 290 nM; in the series “cells”, 300 nM; in the series on BaF3 [1] it was 2100 nM; with BaF3 [2], 1500 nM; in the series with BaF3 [3], 590 nM; in the series with BaF3 [6] it was 220 nM. The compound further had an EC50 in the series on BaF3 [9] of 1000 nM. For the same compound, the Stability entry in [10] is “Stable”. The midpoint of inhibition in series [5], the IC50, lay at 0.91 nM. Moreover, in series [11], the Drug metabolism entry is given as “metabolite_notdetected”.
Consider `CCC(=O)Nc1ccc(OC)c(Nc2cc(-c3[nH]c(SC)nc3-c3cccc(NC(=O)c4cccc(O)c4CN4Cc5ccccc5C4=O)c3)ccn2)c1`, for which the EC50 in the series on HCC827 is 270 nM; in the series with BaF3 [1] it was 1700 nM; with BaF3 [2] it was 1800 nM; with BaF3 [3] it was over 10000 nM; in the series with BaF3 [6] it was 1000 nM; in the series on BaF3 [9], 1100 nM.
Consider `C=CC(=O)Nc1ccc(OC)c(Nc2cc(-c3[nH]c(SC)nc3-c3cccc(NC(=O)c4c(F)cccc4CN4Cc5ccccc5C4=O)c3)ccn2)c1`, for which the EC50 with BaF3 [1] was over 10000 nM; in the series with BaF3 [2] it was 530 nM; in the series with BaF3 [3] it was 1100 nM; with BaF3 [6], 180 nM; in the series with BaF3 [9], 720 nM. In series [5], this compound returned an IC50 of 340 nM.
For the compound `CCc1nc(-c2cccc(NC(=O)c3cccc(O)c3CN3Cc4ccccc4C3=O)c2)c(-c2ccnc(NC(C)=O)c2)[nH]1`, the EC50 with BaF3 [2], in the series with BaF3 [3], with BaF3 [6] and in the series on BaF3 [9] was over 10000 nM throughout.
As to `C=CC(=O)Nc1ccc(OC)c(Nc2cc(-c3[nH]c(SC)nc3-c3cccc(NC(=O)c4c(F)ccc(O)c4CN4Cc5ccccc5C4=O)c3)ccn2)c1`, the EC50 was over 10000 nM in the series with BaF3 [1]; 1400 nM with BaF3 [2]; 1200 nM in the series on BaF3 [3]; 370 nM in the series with BaF3 [6]; 1100 nM with BaF3 [9]. In series [5], this compound returned an IC50 of 1.6 nM.
For the compound `CS(=O)(=O)CCNCc1ccc(-c2ccc3ncnc(Nc4ccc(OCc5cccc(F)c5)c(Cl)c4)c3c2)o1` [LAPATINIB], the EC50 in the series on HCC827 and in “cells” was over 10000 nM each time.
`CSc1nc(-c2cccc(NC(=O)c3cccc(O)c3CN3Cc4ccccc4C3=O)c2)c(-c2ccnc(NC(C)=O)c2)[nH]1`: the EC50 in the series with BaF3 [2], in the series on BaF3 [3], in the series with BaF3 [6] and in the series with BaF3 [9] was over 10000 nM each time.
With `CCc1nc(-c2cccc(NC(=O)c3cccc(O)c3CN3Cc4ccccc4C3=O)c2)c(-c2ccnc(Nc3ccccc3)c2)[nH]1`, the EC50 is over 10000 nM in the series with BaF3 [1], over 10000 nM with BaF3 [3], 3900 nM in the series on BaF3 [6] and over 10000 nM in the series with BaF3 [9].
`CCOc1nc(-c2cccc(NC(=O)c3cccc(O)c3CN3Cc4ccccc4C3=O)c2)c(-c2ccnc(NC(C)=O)c2)[nH]1`: the EC50 in the series with BaF3 [2], with BaF3 [3], with BaF3 [6] and with BaF3 [9] was over 10000 nM each time.
As for `CSc1nc(-c2cccc(NC(=O)c3ccccc3CN3Cc4ccccc4C3=O)c2)c(-c2ccnc(NC(C)=O)c2)[nH]1`, the IC50 in series [12] was 450 nM; in [13] it was 460 nM; in series [14] it was over 1000 nM; in [15] it was 120 nM.
For the compound `CSc1nc(-c2cccc(NC(=O)c3cccc(O)c3CN3Cc4ccccc4C3=O)c2)c(-c2ccnc(Nc3ccc(N4CCNCC4)cc3)c2)[nH]1`, the EC50 in the series on BaF3 [1], in the series with BaF3 [2], in the series with BaF3 [3], in the series on BaF3 [6] and in the series on BaF3 [9] was over 10000 nM in each case.
`CCOc1nc(-c2cccc(NC(=O)c3cccc(O)c3CN3Cc4ccccc4C3=O)c2)c(-c2ccnc(Nc3ccccc3)c2)[nH]1`: the EC50 with BaF3 [2] was over 10000 nM; with BaF3 [3] it was over 10000 nM; with BaF3 [6], 2900 nM; in the series with BaF3 [9], over 10000 nM.
Take `CSc1nc(-c2cccc(NC(=O)c3cccc(O)c3CN3Cc4ccccc4C3=O)c2)c(-c2ccnc(Nc3ccccc3)c2)[nH]1`: the EC50 with BaF3 [2] is 4000 nM; in the series on BaF3 [3], over 10000 nM; in the series with BaF3 [6], over 10000 nM; in the series on BaF3 [9] it was over 10000 nM.
